PubChem BioAssay (NCI)
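Five compound concentrations were applied to cells in 96-well plates for 48 hours; endpoints were derived by simple linear interpolation of the resulting dose-response curve. TGI: concentration producing complete growth inhibition.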

Key:
Assay in all cases: inhibition of tumour cell growth, NCI panel, 48 h
SNB-19 CNS = system: SNB-19 CNS
SF-268 CNS = system: SF-268 CNS
NCI-H522 lung = system: NCI-H522 lung
HOP-92 NSCLC = system: HOP-92 NSCLC
SNB-78 CNS = system: SNB-78 CNS
CAKI-1 renal = system: CAKI-1 renal
SK-MEL-2 melanoma = system: SK-MEL-2 melanoma
M19-MEL melanoma = system: M19-MEL melanoma
U251 CNS = system: U251 CNS
UO-31 renal = system: UO-31 renal
LXFL 529 NSCLC = system: LXFL 529 NSCLC
OVCAR-4 ovarian = system: OVCAR-4 ovarian
HCC-2998 colon = system: HCC-2998 colon
TK-10 renal = system: TK-10 renal
786-0 renal = system: 786-0 renal
NCI-H23 lung = system: NCI-H23 lung
SNB-75 CNS = system: SNB-75 CNS
KM20L2 colon = system: KM20L2 colon
SN12C renal = system: SN12C renal
EKVX NSCLC = system: EKVX NSCLC
MALME-3M melanoma = system: MALME-3M melanoma
HT29 colon = system: HT29 colon
NCI-H460 lung = system: NCI-H460 lung
SW-620 colon = system: SW-620 colon
COLO 205 colon = system: COLO 205 colon
RXF 393 renal = system: RXF 393 renal
DLD-1 colon = system: DLD-1 colon
ACHN renal = system: ACHN renal
SF-295 CNS = system: SF-295 CNS
HOP-18 NSCLC = system: HOP-18 NSCLC
UACC-257 melanoma = system: UACC-257 melanoma
SK-MEL-28 melanoma = system: SK-MEL-28 melanoma
SF-539 CNS = system: SF-539 CNS
DMS 273 small cell lung = system: DMS 273 small cell lung
OVCAR-8 ovarian = system: OVCAR-8 ovarian
NCI-H226 lung = system: NCI-H226 lung
LOX IMVI melanoma = system: LOX IMVI melanoma
HL-60(TB) leukemia = system: HL-60(TB) leukemia
OVCAR-5 ovarian = system: OVCAR-5 ovarian
IGROV1 ovarian = system: IGROV1 ovarian
HCT-15 colon = system: HCT-15 colon
SK-MEL-5 melanoma = system: SK-MEL-5 melanoma
T-47D breast = system: T-47D breast
HOP-62 NSCLC = system: HOP-62 NSCLC
MDA-MB-435 = system: MDA-MB-435
HCT-116 colon = system: HCT-116 colon
MOLT-4 leukemia = system: MOLT-4 leukemia
CCRF-CEM leukemia = system: CCRF-CEM leukemia
MDA-N = system: MDA-N
UACC-62 melanoma = system: UACC-62 melanoma
HS 578T breast = system: HS 578T breast
SK-OV-3 ovarian = system: SK-OV-3 ovarian
PC-3 prostate = system: PC-3 prostate
BT-549 breast = system: BT-549 breast
MDA-MB-231 breast = system: MDA-MB-231 breast
OVCAR-3 ovarian = system: OVCAR-3 ovarian
KM12 colon = system: KM12 colon
K-562 leukemia = system: K-562 leukemia
DU-145 prostate = system: DU-145 prostate
MCF7 breast = system: MCF7 breast
SR leukemia = system: SR leukemia
NCI/ADR-RES ovarian = system: NCI/ADR-RES ovarian
A498 renal = system: A498 renal
RPMI-8226 leukemia = system: RPMI-8226 leukemia
M14 melanoma = system: M14 melanoma
A549 NSCLC = system: A549 NSCLC

Work on `CC1C(/C=C/c2ccoc2)ON2CCCC12` (stereo not drawn) yielded a TGI (SNB-19 CNS) of over 100 µM, a TGI (SF-268 CNS) of over 100 µM and a TGI (NCI-H522 lung) of over 100 µM. The TGI (HOP-92 NSCLC) was over 100 µM, the TGI (SNB-78 CNS) was over 100 µM and the TGI (CAKI-1 renal) was over 100 µM. It also gave a TGI (SK-MEL-2 melanoma) of over 100 µM, a TGI (M19-MEL melanoma) of over 100 µM and a TGI (U251 CNS) of over 100 µM. For the same molecule, the TGI (UO-31 renal) was over 100 µM, the TGI (LXFL 529 NSCLC) was over 100 µM and the TGI (OVCAR-4 ovarian) was over 100 µM. The TGI (HCC-2998 colon) was over 100 µM, the TGI (TK-10 renal) was over 100 µM and the TGI (786-0 renal) was over 100 µM. It also gave a TGI (NCI-H23 lung) of over 100 µM, a TGI (SNB-75 CNS) of over 100 µM and a TGI (KM20L2 colon) of over 100 µM. It also gave a TGI (SN12C renal) of over 100 µM, a TGI (EKVX NSCLC) of over 100 µM and a TGI (MALME-3M melanoma) of over 100 µM. For the same molecule, the TGI (HT29 colon) was over 100 µM, the TGI (NCI-H460 lung) was over 100 µM and the TGI (SW-620 colon) was over 100 µM. It also gave a TGI (COLO 205 colon) of over 100 µM, a TGI (RXF 393 renal) of over 100 µM and a TGI (DLD-1 colon) of over 100 µM. It also gave a TGI (ACHN renal) of over 100 µM, a TGI (SF-295 CNS) of over 100 µM and a TGI (HOP-18 NSCLC) of over 100 µM. For the same molecule, the TGI (UACC-257 melanoma) was over 100 µM, the TGI (SK-MEL-28 melanoma) was over 100 µM and the TGI (SF-539 CNS) was over 100 µM. For the same molecule, the TGI (DMS 273 small cell lung) was over 100 µM, the TGI (OVCAR-8 ovarian) was over 100 µM and the TGI (NCI-H226 lung) was over 100 µM. It also gave a TGI (LOX IMVI melanoma) of over 100 µM, a TGI (HL-60(TB) leukemia) of over 100 µM and a TGI (OVCAR-5 ovarian) of over 100 µM.
`Cc1ccc(-c2cn3c(nc4ccccc43)c(-c3ccccc3)n2)cc1` was tested, and the TGI (SNB-19 CNS) was 48.7 µM, the TGI (SF-268 CNS) was over 96.2 µM and the TGI (IGROV1 ovarian) was over 100 µM. It also gave a TGI (HCT-15 colon) of over 100 µM, a TGI (NCI-H522 lung) of over 100 µM and a TGI (SK-MEL-5 melanoma) of over 100 µM. It also gave a TGI (HOP-92 NSCLC) of 56.4 µM, a TGI (T-47D breast) of over 91.7 µM and a TGI (HOP-62 NSCLC) of 43.7 µM. It also gave a TGI (MDA-MB-435) of over 100 µM, a TGI (CAKI-1 renal) of over 100 µM and a TGI (SK-MEL-2 melanoma) of 58.3 µM. It also gave a TGI (U251 CNS) of over 66.6 µM, a TGI (HCT-116 colon) of over 100 µM and a TGI (UO-31 renal) of over 73.9 µM. The TGI (MOLT-4 leukemia) was over 100 µM, the TGI (OVCAR-4 ovarian) was over 100 µM and the TGI (CCRF-CEM leukemia) was over 100 µM. It also gave a TGI (HCC-2998 colon) of over 100 µM, a TGI (MDA-N) of over 100 µM and a TGI (TK-10 renal) of over 76.5 µM. For the same molecule, the TGI (UACC-62 melanoma) was over 72.5 µM, the TGI (786-0 renal) was 49.2 µM and the TGI (NCI-H23 lung) was 80.8 µM. The TGI (HS 578T breast) was over 77.2 µM, the TGI (SK-OV-3 ovarian) was 47.9 µM and the TGI (SNB-75 CNS) was over 47.7 µM. For the same molecule, the TGI (PC-3 prostate) was over 100 µM, the TGI (BT-549 breast) was over 77 µM and the TGI (SN12C renal) was over 100 µM. The TGI (MDA-MB-231 breast) was over 100 µM, the TGI (EKVX NSCLC) was over 100 µM and the TGI (MALME-3M melanoma) was over 100 µM. The TGI (OVCAR-3 ovarian) was over 100 µM, the TGI (KM12 colon) was over 100 µM and the TGI (HT29 colon) was over 100 µM. It also gave a TGI (K-562 leukemia) of over 100 µM, a TGI (NCI-H460 lung) of over 100 µM and a TGI (SW-620 colon) of over 100 µM. It also gave a TGI (COLO 205 colon) of over 100 µM, a TGI (RXF 393 renal) of over 61.3 µM and a TGI (DU-145 prostate) of over 100 µM. It also gave a TGI (ACHN renal) of over 100 µM, a TGI (SF-295 CNS) of over 67.1 µM and a TGI (MCF7 breast) of over 100 µM. The TGI (SR leukemia) was over 100 µM, the TGI (UACC-257 melanoma) was over 100 µM and the TGI (NCI/ADR-RES ovarian) was over 100 µM. For the same molecule, the TGI (A498 renal) was over 86.5 µM, the TGI (SK-MEL-28 melanoma) was over 100 µM and the TGI (SF-539 CNS) was over 100 µM. The TGI (OVCAR-8 ovarian) was over 100 µM, the TGI (RPMI-8226 leukemia) was over 100 µM and the TGI (NCI-H226 lung) was over 100 µM. It also gave a TGI (LOX IMVI melanoma) of over 100 µM, a TGI (HL-60(TB) leukemia) of over 100 µM and a TGI (M14 melanoma) of over 100 µM. It also gave a TGI (OVCAR-5 ovarian) of over 100 µM and a TGI (A549 NSCLC) of over 100 µM.
